Experimental data from PMC7997396 (Cell host & microbe, 2020).

Biological target: mouse Trpa1 (Mus musculus, UniProt Q8BLA8)
Test: Ca2+ influx assay in HEK-293T cells transfected with mouse TRPA1
Format: cell-based

mouse Trpa1, sequence (Q8BLA8 whole entry): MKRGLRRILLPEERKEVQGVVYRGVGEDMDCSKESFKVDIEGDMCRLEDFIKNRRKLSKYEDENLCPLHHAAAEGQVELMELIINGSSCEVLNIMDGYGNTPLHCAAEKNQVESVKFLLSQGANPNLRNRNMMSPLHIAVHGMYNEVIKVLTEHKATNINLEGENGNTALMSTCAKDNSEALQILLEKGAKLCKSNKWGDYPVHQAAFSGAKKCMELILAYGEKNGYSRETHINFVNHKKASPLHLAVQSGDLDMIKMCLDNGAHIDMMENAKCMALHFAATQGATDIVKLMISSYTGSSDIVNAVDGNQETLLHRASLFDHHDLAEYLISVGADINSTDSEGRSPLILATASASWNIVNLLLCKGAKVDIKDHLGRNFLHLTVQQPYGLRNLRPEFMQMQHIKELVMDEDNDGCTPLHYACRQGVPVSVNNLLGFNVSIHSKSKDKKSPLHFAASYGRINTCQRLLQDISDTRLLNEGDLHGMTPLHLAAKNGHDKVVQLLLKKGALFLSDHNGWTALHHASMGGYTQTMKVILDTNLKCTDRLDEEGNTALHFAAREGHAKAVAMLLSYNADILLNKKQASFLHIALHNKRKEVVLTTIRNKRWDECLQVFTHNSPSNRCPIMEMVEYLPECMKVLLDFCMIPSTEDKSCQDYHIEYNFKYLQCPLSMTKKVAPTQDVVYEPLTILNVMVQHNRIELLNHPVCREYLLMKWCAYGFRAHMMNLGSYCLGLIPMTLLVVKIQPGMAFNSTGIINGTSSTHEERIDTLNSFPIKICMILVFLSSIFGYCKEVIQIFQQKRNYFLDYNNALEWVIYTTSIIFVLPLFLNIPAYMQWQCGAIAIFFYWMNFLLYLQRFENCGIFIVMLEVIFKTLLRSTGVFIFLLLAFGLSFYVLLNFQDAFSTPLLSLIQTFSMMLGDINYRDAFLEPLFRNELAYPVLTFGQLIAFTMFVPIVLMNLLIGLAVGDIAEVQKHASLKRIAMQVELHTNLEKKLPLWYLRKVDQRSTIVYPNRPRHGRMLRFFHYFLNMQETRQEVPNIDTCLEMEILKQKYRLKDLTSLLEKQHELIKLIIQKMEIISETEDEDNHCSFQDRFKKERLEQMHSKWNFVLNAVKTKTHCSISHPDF

Row | Compound | Ca2+ influx assay in HEK-293T cells transfected with mouse TRPA1
1 | c1ccc2[nH]ccc2c1 [Indole] | Both indole and IAld also activated mouse Trpa1, but in a less potent manner
2 | O=Cc1c[nH]c2ccccc12 [IAld, Indole-3-carboxaldehyde] | Both indole and IAld also activated mouse Trpa1, but in a less potent manner
